Measurements as given in patent US20210189341A1, “PLATELET DIAGNOSTIC IMAGING AGENTS” (Cellphire, Inc., priority 2019, published 2021).
Peptide text beside a SMILES is read from it.

Assays:
platelets = experiment: Flow cytometry of FITC-TAT loading into platelets in the presence of platelet anti-aggregation compounds; type: cell-based; details: 100 μM FITC-TAT, 60 minutes, loading buffer, 37° C.
Method: FIG. 3 is a flow cytometry histogram of samples incubated with 100 μM FITC-TAT in the presence of platelet anti-aggregation compounds PGE1, GR144053, and eptifibatide.
Re-suspend platelets in loading buffer (Table 1) or desired incubation solution at a concentration of 500,000 platelets/μL and incubate at 37° C. with low frequency agitation on a rocker for up to 3 hours.
Wash platelets with loading buffer (Table 1) 3× to remove unloaded agents (e.g., FITC-TAT, FITC-labeled magnetic nanoparticles) and use the remaining sample for plate reader, flow cytometer, and/or microscope analysis.
The results for the above formulation are provided herein. A Tecan Infinite M200 Pro plate reader was used for quantification of MRI agent loading. A Novocyte flow cytometer was used to determine both MRI agent loading and percent of platelets effectively loaded. An Olympus microscope was used to visualize the loading into platelets.
Negative controls included 0 μM FITC-TAT in loading buffer and 50 μM fluorescein in loading buffer. All samples were incubated in loading buffer at 37° C. with low frequency agitation on a rocker.

platelets (400 K/μL) = experiment: Magnetic resonance imaging of loaded platelet samples; details: positive control
Excerpt: FIGS. 9A-B show a schematic (FIG. 9A) and magnetic resonance imaging (FIG. 9B).
FIGS. 9A-B show a schematic (FIG. 9A) and magnetic resonance imaging (FIG. 9B). […] Sample 1A included loading buffer and platelets (400 K/μL), sample 1B included loading buffer alone, sample 2A included loading buffer, Gd-DOTA-CPP-FITC, and platelets (400 K/μL), and sample 2B included loading buffer and Gd-DOTA-FITC-CPP only (washed) as another negative control.

Compound | effect of anti-aggregation compound on platelet loading / distribution of FITC-CPP (flow cytometry histogram) (platelets) | detection by magnetic resonance imaging (platelets (400 K/μL); 100 μM) | detection by magnetic resonance imaging (platelets (400 K/μL); 100 mM)
Cl.Cl.Cl.N=C(N)c1ccc(N2CCN(C3CCN(CC(=O)O)CC3)CC2)cc1 [GR144053] | little to no effect |  | 
[Cl][Gd]([Cl])[Cl] [GdCl3] |  | detection | detection
CCCCC[C@H](O)/C=C/[C@H]1[C@H](O)CC(=O)[C@@H]1CCCCCCC(=O)O [PGE1, Prostaglandin E1] | improved platelet loading |  | 
N=C(N)NCCCC[C@@H]1NC(=O)CCSSC[C@@H](C(N)=O)NC(=O)[C@@H]2CCCN2C(=O)[C@H](Cc2c[nH]c3ccccc23)NC(=O)[C@H](CC(=O)O)NC(=O)CNC1=O [eptifibatide] (HELM PEPTIDE1{[O=C(CCS[*:3])[*:2]].[N=C(N)NCCCC[C@H](N[*:1])C(=O)[*:2]].G.D.W.P.C.[am]}$PEPTIDE1,PEPTIDE1,1:R3-7:R3$$$V2.0) | little to no effect |  | 
